Assay: xn = mol fraction of the nth substance listed
Details: 101 kPa, Liquid; for speed of sound: Sing-around technique in a fixed-path interferometer; for mass density: Vibrating tube method

COCCO [2-methoxyethan-1-ol] + CCCCn1cc[n+](C)c1.F[B-](F)(F)F
Details	mass density [kg/m3]	speed of sound [m/s]
288.15 K, x2 = 0	969.794	1380
288.15 K, x2 = 0.0509	1000.6	1411
288.15 K, x2 = 0.1092	1030.06	1438
288.15 K, x2 = 0.2052	1068.45	1474
288.15 K, x2 = 0.3071	1099.91	1500
288.15 K, x2 = 0.4025	1123.36	1521
288.15 K, x2 = 0.5116	1145.2	1539
288.15 K, x2 = 0.6257	1164.11	1553
288.15 K, x2 = 0.7153	1176.88	1565
288.15 K, x2 = 0.8088	1188.61	1574
288.15 K, x2 = 0.9155	1199.86	1582
293.15 K, x2 = 0	965.063	1367
293.15 K, x2 = 0.0509	996.158	1394
293.15 K, x2 = 0.1092	1025.74	1422
293.15 K, x2 = 0.2052	1064.33	1460
293.15 K, x2 = 0.3071	1095.87	1486
293.15 K, x2 = 0.4025	1119.42	1508
293.15 K, x2 = 0.5116	1141.38	1527
293.15 K, x2 = 0.6257	1160.35	1542
293.15 K, x2 = 0.7153	1173.17	1554
293.15 K, x2 = 0.8088	1184.96	1563
293.15 K, x2 = 0.9155	1196.25	1571
298.15 K, x2 = 0	960.447	1351
298.15 K, x2 = 0.0509	991.715	1378
298.15 K, x2 = 0.1092	1021.41	1406
298.15 K, x2 = 0.2052	1060.08	1446
298.15 K, x2 = 0.3071	1091.76	1472
298.15 K, x2 = 0.4025	1115.42	1494
298.15 K, x2 = 0.5116	1137.55	1514
298.15 K, x2 = 0.6257	1156.59	1530
298.15 K, x2 = 0.7153	1169.47	1542
298.15 K, x2 = 0.8088	1181.31	1551
298.15 K, x2 = 0.9155	1192.64	1560
303.15 K, x2 = 0	955.825	1337
303.15 K, x2 = 0.0509	987.145	1361
303.15 K, x2 = 0.1092	1017.07	1391
303.15 K, x2 = 0.2052	1056.15	1431
303.15 K, x2 = 0.3071	1087.96	1457
303.15 K, x2 = 0.4025	1111.59	1480
303.15 K, x2 = 0.5116	1133.65	1501
303.15 K, x2 = 0.6257	1152.84	1517
303.15 K, x2 = 0.7153	1165.77	1530
303.15 K, x2 = 0.8088	1177.66	1539
303.15 K, x2 = 0.9155	1189.04	1548
308.15 K, x2 = 0	951.214	1321
308.15 K, x2 = 0.0509	982.765	1344
308.15 K, x2 = 0.1092	1012.72	1375
308.15 K, x2 = 0.2052	1051.85	1415
308.15 K, x2 = 0.3071	1083.79	1443
308.15 K, x2 = 0.4025	1107.66	1467
308.15 K, x2 = 0.5116	1129.9	1488
308.15 K, x2 = 0.6257	1149.1	1505
308.15 K, x2 = 0.7153	1162.09	1517
308.15 K, x2 = 0.8088	1174.01	1526
308.15 K, x2 = 0.9155	1185.43	1536
313.15 K, x2 = 0	946.562	1304
313.15 K, x2 = 0.0509	978.381	1328
313.15 K, x2 = 0.1092	1008.49	1359
313.15 K, x2 = 0.2052	1047.68	1400
313.15 K, x2 = 0.3071	1079.71	1430
313.15 K, x2 = 0.4025	1103.68	1453
313.15 K, x2 = 0.5116	1126.04	1475
313.15 K, x2 = 0.6257	1145.37	1492
313.15 K, x2 = 0.7153	1158.41	1505
313.15 K, x2 = 0.8088	1170.38	1514
313.15 K, x2 = 0.9155	1181.84	1525
318.15 K, x2 = 0	941.864	1287
318.15 K, x2 = 0.0509	973.683	1311
318.15 K, x2 = 0.1092	1004.01	1343
318.15 K, x2 = 0.2052	1043.46	1383
318.15 K, x2 = 0.3071	1075.71	1415
318.15 K, x2 = 0.4025	1099.79	1440
318.15 K, x2 = 0.5116	1122.25	1461
318.15 K, x2 = 0.6257	1141.63	1479
318.15 K, x2 = 0.7153	1154.74	1492
318.15 K, x2 = 0.8088	1166.72	1502
318.15 K, x2 = 0.9155	1178.23	1513
